{"source": "ChEMBL document CHEMBL5241120", "about": "“Insights into the medicinal chemistry of heterocycles integrated with a pyrazolo[1,5-a]pyrimidine scaffold” (RSC Med Chem, 2022)", "key": {"Aspergillus niger [1]": {"tested_on": "Aspergillus niger", "experiment": "Antifungal activity against Aspergillus niger assessed as zone of inhibition", "format": "functional"}, "Escherichia coli [2]": {"tested_on": "Escherichia coli", "experiment": "Antibacterial activity against Escherichia coli assessed as zone of inhibition", "format": "functional"}, "Bacillus subtilis [3]": {"tested_on": "Bacillus subtilis", "experiment": "Antibacterial activity against Bacillus subtilis assessed as zone of inhibition", "format": "functional"}, "Salmonella enterica": {"tested_on": "Salmonella enterica", "experiment": "Antibacterial activity against Salmonella enterica assessed as zone of inhibition", "format": "functional"}, "Bacillus subtilis [4]": {"tested_on": "Bacillus subtilis", "experiment": "Antibacterial activity against Bacillus subtilis", "format": "functional"}, "Staphylococcus aureus [5]": {"tested_on": "Staphylococcus aureus", "experiment": "Antibacterial activity against Staphylococcus aureus", "format": "functional"}, "Escherichia coli [6]": {"tested_on": "Escherichia coli", "experiment": "Antibacterial activity against Escherichia coli", "format": "functional"}, "Pseudomonas aeruginosa": {"tested_on": "Pseudomonas aeruginosa", "experiment": "Antibacterial activity against Pseudomonas aeruginosa", "format": "functional"}, "[7]": {"target": "T1, Prostaglandin G/H synthase 1 (Ovis aries, UniProt P05979)", "T1 sequence (P05979 whole entry)": "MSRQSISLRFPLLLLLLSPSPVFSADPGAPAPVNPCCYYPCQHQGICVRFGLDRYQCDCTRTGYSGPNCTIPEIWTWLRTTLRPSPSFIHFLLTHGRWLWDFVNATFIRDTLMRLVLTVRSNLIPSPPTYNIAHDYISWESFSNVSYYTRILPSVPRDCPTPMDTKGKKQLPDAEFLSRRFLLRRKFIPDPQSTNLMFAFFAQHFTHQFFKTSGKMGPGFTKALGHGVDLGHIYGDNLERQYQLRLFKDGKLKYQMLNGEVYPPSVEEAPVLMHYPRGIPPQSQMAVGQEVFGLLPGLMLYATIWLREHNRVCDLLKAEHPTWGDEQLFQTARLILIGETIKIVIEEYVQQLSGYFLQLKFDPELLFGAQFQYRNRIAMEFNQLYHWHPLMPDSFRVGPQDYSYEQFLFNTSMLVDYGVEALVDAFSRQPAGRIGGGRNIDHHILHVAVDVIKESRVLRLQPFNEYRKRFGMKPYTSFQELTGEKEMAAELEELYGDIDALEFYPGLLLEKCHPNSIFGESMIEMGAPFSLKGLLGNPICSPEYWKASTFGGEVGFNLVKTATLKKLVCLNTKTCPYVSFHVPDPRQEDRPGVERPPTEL", "experiment": "Inhibition of ovine COX-1"}, "[8]": {"experiment": "Inhibition of soybean 15-LOX", "parameters": "species or system Glycine max"}, "Candida albicans": {"tested_on": "Candida albicans", "experiment": "Antifungal activity against Candida albicans assessed as zone of inhibition", "format": "functional"}, "Staphylococcus aureus [9]": {"tested_on": "Staphylococcus aureus", "experiment": "Antibacterial activity against Staphylococcus aureus assessed as zone of inhibition", "format": "functional"}, "Aspergillus niger [10]": {"tested_on": "Aspergillus niger", "experiment": "Antifungal activity against Aspergillus niger by dry weight method", "format": "functional"}, "Aspergillus flavus": {"tested_on": "Aspergillus flavus", "experiment": "Antifungal activity against Aspergillus flavus by dry weight method", "format": "functional", "parameters": "unit not given beside the values"}, "Fusarium verticillioides": {"tested_on": "Fusarium verticillioides", "experiment": "Antifungal activity against Fusarium moniliforme by dry weight method", "format": "functional"}, "CHO-K1": {"tested_on": "CHO-K1", "experiment": "Cytotoxicity against CHO-K1 cells by MTT assay", "format": "toxicity, cell-based, Cricetulus griseus", "parameters": "concentration or dose not given beside the values", "details": "chinese hamster"}, "HepG2": {"tested_on": "HepG2", "experiment": "Cytotoxicity against human HepG2 cells by MTT assay", "format": "functional, cell-based"}, "MCF7": {"tested_on": "MCF7", "experiment": "Cytotoxicity against human MCF7 cells by MTT assay", "format": "functional, cell-based"}, "HCT-116": {"tested_on": "HCT-116", "experiment": "Cytotoxicity against human HCT-116 cells by MTT assay", "format": "functional, cell-based"}, "Rattus norvegicus": {"tested_on": "Rattus norvegicus", "experiment": "Analgesic activity in Sprague-Dawley rat at 15 mg/kg after 2 hrs by hot plate test", "format": "functional"}}}
{"smiles": "COc1ccc(Nc2nn3c(N)c(C#N)c(-c4cccc(Cl)c4)nc3c2C(=O)Nc2ccccc2)cc1", "values": [{"measurement": "inhibition zone (IZ)", "setting": "Aspergillus niger [1]", "value": 15, "unit": "mm"}]}
{"smiles": "Cc1nc2c(c(C)nc3c(C#N)cnn32)c(Cl)c1CCCl", "values": [{"measurement": "inhibition zone (IZ)", "setting": "Escherichia coli [2]", "value": 15.3, "unit": "mm"}, {"measurement": "inhibition zone (IZ)", "setting": "Bacillus subtilis [3]", "value": 15.1, "unit": "mm"}, {"measurement": "inhibition zone (IZ)", "setting": "Aspergillus niger [1]", "value": 17.2, "unit": "mm"}]}
{"smiles": "C[C@@H]1[C@H](O)[C@@H](C)/C=C/C=C/C=C/C=C/C=C/C=C/C=C/[C@H](O[C@@H]2O[C@H](C)[C@@H](O)[C@H](N)[C@@H]2O)C[C@@H]2O[C@](O)(C[C@@H](O)C[C@@H](O)[C@H](O)CC[C@@H](O)C[C@@H](O)CC(=O)O[C@H]1C)C[C@H](O)[C@H]2C(=O)O", "note": "[AMPHOTERICIN B]", "values": [{"measurement": "inhibition zone (IZ)", "setting": "Aspergillus niger [1]", "value": 23.3, "unit": "mm"}]}
{"smiles": "O=C(Nc1ccccc1)c1cnn2c(-c3ccccn3)ccnc12", "values": [{"measurement": "inhibition zone (IZ)", "setting": "Salmonella enterica", "value": 11, "unit": "mm"}]}
{"smiles": "COc1ccc(Nc2nn3c(-c4ccc(C)cc4)ccnc3c2C(N)=O)cc1", "values": [{"measurement": "MIC", "setting": "Bacillus subtilis [4]", "value": 3.9, "unit": "µg/mL"}, {"measurement": "MIC", "setting": "Staphylococcus aureus [5]", "value": 7.81, "unit": "µg/mL"}, {"measurement": "MIC", "setting": "Escherichia coli [6]", "value": 15.6, "unit": "µg/mL"}, {"measurement": "MIC", "setting": "Pseudomonas aeruginosa", "value": 7.81, "unit": "µg/mL"}]}
{"smiles": "COc1ccnc(Nc2n[nH]c(N)c2C#N)c1", "values": [{"measurement": "IC50", "setting": "[7]", "value": 9.1, "unit": "µM"}, {"measurement": "IC50", "setting": "[8]", "value": 14.2, "unit": "µM"}]}
{"smiles": "COc1ccc(Nc2nn3c(N)c(C#N)c(-c4cc(OC)ccc4OC)nc3c2C(=O)Nc2ccccc2)cc1", "values": [{"measurement": "inhibition zone (IZ)", "setting": "Escherichia coli [2]", "value": 16, "unit": "mm"}, {"measurement": "inhibition zone (IZ)", "setting": "Bacillus subtilis [3]", "value": 20, "unit": "mm"}, {"measurement": "inhibition zone (IZ)", "setting": "Aspergillus niger [1]", "value": 15, "unit": "mm"}]}
{"smiles": "COC1=CC(=O)C[C@@H](C)[C@]12Oc1c(Cl)c(OC)cc(OC)c1C2=O", "note": "[GRISEOFULVIN]", "values": [{"measurement": "inhibition zone (IZ)", "setting": "Candida albicans", "value": 16.8, "unit": "mm"}]}
{"smiles": "Cc1ccc(-c2ccnc3c(C(N)=O)c(Nc4ccccc4)nn23)cc1", "values": [{"measurement": "inhibition zone (IZ)", "setting": "Bacillus subtilis [3]", "value": 9, "unit": "mm"}, {"measurement": "MIC", "setting": "Bacillus subtilis [4]", "value": 3.9, "unit": "µg/mL"}, {"measurement": "MIC", "setting": "Staphylococcus aureus [5]", "value": 7.81, "unit": "µg/mL"}, {"measurement": "MIC", "setting": "Escherichia coli [6]", "value": 15.6, "unit": "µg/mL"}, {"measurement": "MIC", "setting": "Pseudomonas aeruginosa", "value": 7.81, "unit": "µg/mL"}]}
{"smiles": "CSc1nn2c(-c3ccccc3)c(C#N)c(N)nc2c1-c1nc2ccccc2n1C", "values": [{"measurement": "inhibition zone (IZ)", "setting": "Staphylococcus aureus [9]", "value": 9, "unit": "mm"}, {"measurement": "Activity", "setting": "Aspergillus niger [10]", "value": 0.51}, {"measurement": "Activity", "setting": "Aspergillus flavus", "value": 0.36}, {"measurement": "Activity", "setting": "Fusarium verticillioides", "value": 0.19}]}
{"smiles": "COC(=O)c1cnc2c(C(=O)Nc3c(C)n(C)n(-c4ccccc4)c3=O)cnn2c1C", "values": [{"measurement": "Activity", "setting": "CHO-K1", "value": 49.24, "unit": "%"}]}
{"smiles": "Cc1ccc(-c2nc3c(/N=N/c4cccc(C(F)(F)F)c4)c(N)nn3c(N)c2C#N)cc1", "values": [{"measurement": "IC50", "setting": "HepG2", "value": 0.64, "unit": "µg/mL"}, {"measurement": "IC50", "setting": "MCF7", "value": 2.79, "unit": "µg/mL"}, {"measurement": "IC50", "setting": "HCT-116", "value": 1.89, "unit": "µg/mL"}]}
{"smiles": "C[C@@H]1C[C@@H]([C@H](O)CC2CC(=O)NC(=O)C2)C(=O)[C@@H](C)C1", "note": "[CYCLOHEXIMIDE]", "values": [{"measurement": "inhibition zone (IZ)", "setting": "Candida albicans", "value": 32, "unit": "mm"}]}
{"smiles": "CSc1nn2c(-c3cccs3)c(C#N)c(N)nc2c1-c1nc2ccccc2n1C", "values": [{"measurement": "Activity", "setting": "Aspergillus niger [10]", "value": 0.56}, {"measurement": "Activity", "setting": "Aspergillus flavus", "value": 0.38}, {"measurement": "Activity", "setting": "Fusarium verticillioides", "value": 0.28}]}
{"smiles": "Cc1ccc(-c2nc3c(/N=N/c4cccc(C(F)(F)F)c4)c(N)nn3c(O)c2C#N)cc1", "values": [{"measurement": "IC50", "setting": "HepG2", "value": 8.47, "unit": "µg/mL"}, {"measurement": "IC50", "setting": "MCF7", "value": 11.2, "unit": "µg/mL"}, {"measurement": "IC50", "setting": "HCT-116", "value": 12, "unit": "µg/mL"}]}
{"smiles": "COc1ccc(Nc2nn3c(N)c(C#N)c(-c4cccc(Cl)c4)nc3c2C(=O)Nc2ccc(Cl)cc2)cc1", "values": [{"measurement": "inhibition zone (IZ)", "setting": "Aspergillus niger [1]", "value": 15, "unit": "mm"}]}
{"smiles": "CSc1nn2c(-c3ccccc3)c(C#N)c(=O)[nH]c2c1-c1nc2ccccc2n1C", "values": [{"measurement": "Activity", "setting": "Aspergillus niger [10]", "value": 0.43}, {"measurement": "Activity", "setting": "Aspergillus flavus", "value": 0.33}, {"measurement": "Activity", "setting": "Fusarium verticillioides", "value": 0.16}]}
{"smiles": "CSc1nn2c(C)cc(C)nc2c1-c1nc2ccccc2n1C", "values": [{"measurement": "inhibition zone (IZ)", "setting": "Escherichia coli [2]", "value": 9, "unit": "mm"}, {"measurement": "Activity", "setting": "Aspergillus niger [10]", "value": 0.27}, {"measurement": "Activity", "setting": "Aspergillus flavus", "value": 0.3}, {"measurement": "Activity", "setting": "Fusarium verticillioides", "value": 0.11}]}
{"smiles": "Cc1c(NC(=O)c2cnn3c(N)c(-c4ccccc4)cnc23)c(=O)n(-c2ccccc2)n1C", "values": [{"measurement": "Activity", "setting": "CHO-K1", "value": 45.75, "unit": "%"}]}
{"smiles": "CC(Cc1ccc(O)c(O)c1)C(C)Cc1ccc(O)c(O)c1", "note": "(stereo not drawn) [NORDIHYDROGUAIARETIC ACID]", "values": [{"measurement": "IC50", "setting": "[8]", "value": 8.5, "unit": "µM"}]}
{"smiles": "Cc1cc(NN2C(=O)CCC2=O)n2ncc(C#N)c2n1", "values": [{"measurement": "MIC", "setting": "Bacillus subtilis [4]", "value": 10, "unit": "µg/mL"}, {"measurement": "MIC", "setting": "Escherichia coli [6]", "value": 10, "unit": "µg/mL"}]}
{"smiles": "O=C(O)Cc1ccccc1Nc1c(Cl)cccc1Cl", "note": "[DICLOFENAC]", "values": [{"measurement": "Activity", "setting": "Rattus norvegicus", "value": 84, "unit": "%"}]}
{"smiles": "CN[C@@H]1[C@H](O[C@H]2[C@H](O[C@H]3[C@H](O)[C@@H](O)[C@H](N=C(N)N)[C@@H](O)[C@@H]3N=C(N)N)O[C@@H](C)[C@]2(O)C=O)O[C@@H](CO)[C@H](O)[C@H]1O", "note": "[STREPTOMYCIN]", "values": [{"measurement": "inhibition zone (IZ)", "setting": "Escherichia coli [2]", "value": 16.4, "unit": "mm"}, {"measurement": "inhibition zone (IZ)", "setting": "Bacillus subtilis [3]", "value": 16.2, "unit": "mm"}, {"measurement": "MIC", "setting": "Bacillus subtilis [4]", "value": 5, "unit": "µg/mL"}, {"measurement": "MIC", "setting": "Escherichia coli [6]", "value": 5, "unit": "µg/mL"}]}
